Experiments:
[1] = in vivo; details: rat
Experimental: (§1) Effect of palmitoylcarnitine chloride on the rectal absorption of drug entities. Experiments were performed with rats wherein each animal received an aqueous microenema applied to the rectal cavity. […] Blood levels were monitored and the amount of drug absorbed calculated against intravenous administration and expressed as percent bioavailability.
(§2) Concentration dependence of palmitoylcarnitine effect on rectal absorption of sodium cefoxitin, a β-lactam antibiotic. […] Blood samples were collected and assayed for sodium cefoxitin. The amount of drug absorbed is expressed as percent bioavailability as compared to intravenous administration.
(§3) Effect of various carnitine esters on rectal absorption of sodium cefoxitin, a β-lactam antibiotic, and cyclo(N-Ala-Tyr-D-Trp-Lys-Val-Phe)acetate, a polypeptide. […] Blood samples were collected and sodium cefoxitin or cyclo(N-AlA-TyR-D-Trp-Lys-Val-Phe)acetate assayed. The amount of drug absorbed is expressed as percent bioavailability versus intravenous administration.
(§4) Importance of carnitine-palmitoyl ester linkage in absorption promoting effects on rectal sodium cefoxitin absorption. […] Blood was collected and sodium cefoxitin measured. Absorption of sodium cefoxitin is expressed as percent bioavailability versus intravenous administration.

[2] = in vivo; details: rat; remark: listed apart in the source
Experimental: Effect of palmitoylcarnitine chloride on small intestinal absorption of polypeptides. Experiments were performed with rats wherein each animal received an aqueous solution applied to the duodenal region. […] Blood levels were monitored and the amount of polypeptide absorbed calculated against intravenous administration and expressed as percent bioavailability.

[3] = rat, in vivo
Experimental: as §1, §2, §3, §4

[4] = Rectal absorption of target drug from aqueous microenema, percent bioavailability versus intravenous administration; details: carnitine without acyl ester
Experimental: as §1, §2, §3, §4

SMILES	Sodium Cefoxitin Percent Bioavailability (mean ± SD) ([3]; pH 6) [%]	Percent Bioavailability (mean ± SD) Control [3] [%]	Percent Bioavailability (mean ± SD) with Palmitoylcarnitine-Cl [3] [%]	other results
CC(C)[C@@H]1NC(=O)[C@H](CCCCN)NC(=O)[C@@H](Cc2c[nH]c3ccccc23)NC(=O)[C@H](Cc2ccc(O)cc2)NC(=O)[C@H](C)N(C)C(=O)[C@H](Cc2ccccc2)NC1=O [#-363,586, cyclo(N--Me--Ala--Tyr--DTrp--Lys--Val--Phe)acetate]	–	–	–	bioavailability ([1]; 0.1 mg, pH 6, Percent Bioavailability (mean ± SD) Cyclo(N-Ala-Tyr-D-Trp-Lys-Val-Phe)acetate): 7 ± 3.5%; bioavailability ([1]; Percent Bioavailability (mean ± SD) Control): 7 ± 3.5%; bioavailability ([1]; Percent Bioavailability (mean ± SD) with Palmitoylcarnitine-Cl): 100 ± 28.2%; bioavailability [2]: 1%
C[N+](C)(C)CC(O)CC(=O)[O-] (stereo not shown) [Carnitine]	1 ± 0.6	–	–	absorption promoting effect of carnitine alone [4]: no effect
Nc1ccn([C@@H]2O[C@H](CO)[C@@H](O)[C@@H]2O)c(=O)n1 [Cytarabine]	–	0.5 ± 0.1	9 ± 0.6	–
CCCCCCCCCCCCCCCC(=O)O [Palmitic acid]	1 ± 0.8	–	–	–
CO[C@@]1(NC(=O)Cc2cccs2)C(=O)N2C(C(=O)O)=C(COC(N)=O)CS[C@@H]21 [Sodium cefoxitin]	2 ± 1.1	2 ± 1.1	68 ± 7.2	Percent Bioavailability (mean ± SD) Sodium Cefoxitin ([3]; pH 6): 2 ± 1.1%; Sodium Cefoxitin Percent Bioavailability mean ± SD ([3]; pH 6): 2 ± 1.1%
Cn1c(=O)c2[nH]cnc2n(C)c1=O [Theophylline]	–	75 ± 3.3	75 ± 2.6	–

Reference: patent US4537772A, “Enhancing absorption of drugs from gastrointestinal tract using acylcarnitines” (Merck & Co., Inc., priority 1984, dated 1985)
